Tests used:
[1] = target: T1, Nuclear receptor ROR-gamma (Homo sapiens, UniProt P51449); experiment: Displacement of [3H]-Digoxin from recombinant human GST-fused RORgammat LBD after 1 to 4 hrs by scintillation counting method
T1 sequence (P51449 whole entry): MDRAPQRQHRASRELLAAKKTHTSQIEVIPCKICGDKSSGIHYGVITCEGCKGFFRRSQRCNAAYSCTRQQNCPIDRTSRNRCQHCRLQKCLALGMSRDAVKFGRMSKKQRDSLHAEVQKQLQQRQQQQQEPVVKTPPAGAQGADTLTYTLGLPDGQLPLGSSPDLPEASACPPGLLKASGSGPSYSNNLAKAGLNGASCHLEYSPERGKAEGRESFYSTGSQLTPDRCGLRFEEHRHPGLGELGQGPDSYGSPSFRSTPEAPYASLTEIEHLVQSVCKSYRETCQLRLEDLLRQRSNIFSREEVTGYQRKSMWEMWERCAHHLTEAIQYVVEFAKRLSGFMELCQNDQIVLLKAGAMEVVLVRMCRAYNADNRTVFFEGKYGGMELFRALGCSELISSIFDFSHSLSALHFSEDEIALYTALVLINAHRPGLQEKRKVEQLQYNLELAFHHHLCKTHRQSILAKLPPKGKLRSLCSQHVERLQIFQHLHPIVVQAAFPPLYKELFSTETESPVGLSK

[2] = Tmax in rat at 1 mg/kg, po; format: ADME, organism-based; settings: in vivo
[3] = target: T2, Oxysterols receptor LXR-beta (Homo sapiens, UniProt P55055); experiment: Transrepression of recombinant human GAL4-DBD fused LXRbeta LBD expressed in HEK293 cells after 20 hrs by luciferase reporter gene assay; format: cell-based
T2 sequence (P55055 whole entry): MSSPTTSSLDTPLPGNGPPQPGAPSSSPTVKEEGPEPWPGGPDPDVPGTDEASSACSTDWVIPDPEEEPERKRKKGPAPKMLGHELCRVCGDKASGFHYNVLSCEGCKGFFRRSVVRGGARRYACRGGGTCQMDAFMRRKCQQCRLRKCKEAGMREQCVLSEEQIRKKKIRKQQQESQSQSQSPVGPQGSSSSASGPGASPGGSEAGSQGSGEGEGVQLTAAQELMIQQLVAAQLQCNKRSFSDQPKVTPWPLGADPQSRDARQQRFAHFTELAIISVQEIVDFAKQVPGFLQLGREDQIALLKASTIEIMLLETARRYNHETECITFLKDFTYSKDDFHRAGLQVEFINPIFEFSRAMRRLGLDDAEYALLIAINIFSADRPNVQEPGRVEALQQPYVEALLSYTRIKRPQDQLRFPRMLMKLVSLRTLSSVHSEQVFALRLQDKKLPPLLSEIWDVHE

[4] = target: T1, Nuclear receptor ROR-gamma; experiment: (§1) Transrepression of recombinant human GAL4-DBD fused RORgammat LBD expressed in HEK293 cells after 20 hrs by luciferase reporter gene assay; format: cell-based
[5] = target: T3, Nuclear receptor ROR-gamma (Homo sapiens) (UniProt P51449); experiment: as §1; format: cell-based
T3 sequence (whole entry): T1 sequence (P51449 whole entry)

[6] = Total clearance in rat at 0.5 mg/kg, iv; format: ADME, organism-based; settings: in vivo
[7] = Volume of distribution at steady state in rat at 0.5 mg/kg, iv; format: ADME, organism-based; settings: in vivo, read-out: Vdss
[8] = target: T4, Nuclear receptor ROR-beta (Homo sapiens, UniProt Q92753); experiment: Transrepression of recombinant human GAL4-DBD fused RORbeta LBD expressed in HEK293 cells after 20 hrs by luciferase reporter gene assay; format: cell-based
T4 sequence (Q92753 whole entry): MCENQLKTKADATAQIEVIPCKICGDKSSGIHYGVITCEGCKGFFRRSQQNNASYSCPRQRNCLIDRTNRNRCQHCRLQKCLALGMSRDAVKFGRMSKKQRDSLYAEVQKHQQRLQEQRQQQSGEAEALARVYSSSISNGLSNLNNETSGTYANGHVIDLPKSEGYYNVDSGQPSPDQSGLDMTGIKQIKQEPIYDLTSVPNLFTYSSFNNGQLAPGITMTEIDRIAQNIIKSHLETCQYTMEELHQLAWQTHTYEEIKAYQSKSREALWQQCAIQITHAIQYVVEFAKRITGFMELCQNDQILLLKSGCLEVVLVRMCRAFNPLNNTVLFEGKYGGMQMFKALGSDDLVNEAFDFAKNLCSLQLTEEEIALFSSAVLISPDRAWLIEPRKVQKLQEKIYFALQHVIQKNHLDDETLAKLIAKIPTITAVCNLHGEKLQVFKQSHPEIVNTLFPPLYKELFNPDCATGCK

[9] = target: T5, Nuclear receptor ROR-alpha (Homo sapiens, UniProt P35398); experiment: Displacement of [3H]T0901317 from recombinant human GST-fused RORalpha LBD after 1 to 4 hrs by microbeta scintillation counting method
T5 sequence (P35398 whole entry): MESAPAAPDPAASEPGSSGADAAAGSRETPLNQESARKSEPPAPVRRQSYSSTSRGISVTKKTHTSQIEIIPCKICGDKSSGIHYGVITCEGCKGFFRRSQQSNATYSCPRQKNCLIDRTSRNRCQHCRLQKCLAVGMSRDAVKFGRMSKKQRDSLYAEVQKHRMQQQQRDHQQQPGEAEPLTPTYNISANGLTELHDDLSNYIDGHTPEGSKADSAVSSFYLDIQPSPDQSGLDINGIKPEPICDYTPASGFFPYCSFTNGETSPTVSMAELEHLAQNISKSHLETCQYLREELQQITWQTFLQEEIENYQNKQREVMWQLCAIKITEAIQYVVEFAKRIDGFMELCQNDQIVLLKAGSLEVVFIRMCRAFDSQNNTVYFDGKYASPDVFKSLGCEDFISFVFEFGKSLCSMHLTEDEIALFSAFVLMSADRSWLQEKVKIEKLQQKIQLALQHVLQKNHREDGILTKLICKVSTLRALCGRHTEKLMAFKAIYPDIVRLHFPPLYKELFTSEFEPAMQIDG

[10] = AUC in rat at 0.5 mg/kg, iv; format: ADME, organism-based; settings: in vivo
[11] = Cmax in rat at 1 mg/kg, po; format: ADME, organism-based; parameters: dose 1 mg/kg, route oral; settings: in vivo
[12] = Fraction unbound in rat plasma at 1 mg/kg, po; format: ADME, organism-based
[13] = Oral bioavailability in rat at 1 mg/kg; format: ADME, organism-based; settings: in vivo
[14] = Stability in human liver microsomes assessed as parent compound remaining after 2 hrs by LC-MS/MS analysis; format: ADME, microsome; settings: read-out: Stability
[15] = Stability in rat liver microsomes assessed as parent compound remaining after 2 hrs by LC-MS/MS analysis; format: ADME, microsome; settings: read-out: Stability
[16] = AUC in rat at 1 mg/kg, po; format: ADME, organism-based; settings: in vivo

SMILES | IC50 [1] [µM] | Tmax [2] [h] | EC50 [3] [µM] | IC50 [4] [µM] | Efficacy [5] [%] | clearance [6] [mL/min/kg] | Vd [7] [L/kg] | IC50 [8] [µM] | IC50 [9] [µM] | AUC [10] [ng·h/mL] | Cmax [11] [ng/mL] | fraction unbound [12] | bioavailability [13] [%] | remaining at 2 h [14] [%] | remaining at 2 h [15] [%] | AUC [16] [ng·h/mL]
CCS(=O)(=O)c1ccc(CC(=O)Nc2ccc(C(C)(C)C(=O)Nc3ccc(F)cc3F)c(F)c2)cc1 | < 0.03 | 4 | > 30 | 0.029 | 100 | 4.33 | 1.1 | > 10 | > 10 | 1930 | 185 | 0.034 | 54.5 | 95 | 89 | 2110
CCS(=O)(=O)c1ccc(CC(=O)Nc2ccc(C(C)(C)C(=O)Nc3cc(C#N)ccn3)c(F)c2)cc1 | < 0.03 | 1 | > 30 | 0.016 | 95 | 15 | 3.3 | > 10 | > 10 | 556 | 33.3 | 0.051 | 19.6 | 82 | 71 | 218
CCS(=O)(=O)c1ccc(CC(=O)Nc2ccc(C(C)(C)C(=O)Nc3ccc(F)cc3)c(F)c2)cc1 | < 0.03 | 2.5 | > 30 | 0.025 | 95 | 8.45 | 1.7 | > 10 | > 10 | 986 | 85.3 | 0.036 | 39.9 | 63 | 77 | 786
